Assay results: publication PMC12607321, “Sumac Polyphenols as Pan-Herpesvirus Inhibitors” (International Journal of Molecular Sciences, 2025)
Converted amounts (≈) assume the structure as drawn. “And” between values parts separate entries of the source, which are not always exact repeats. Identical values can stand only once. Like-named read-outs stand apart in the source and are kept apart here.

Key:
[1] = test system: HSV-2BH; assay: Antiviral activity in Vero E6 cells infected with HSV-2 (cytopathic effect); type: cell-based
[2] = test system: MDCK cells; settings: MTT
[3] = test system: influenza A virus/California/07/2009 (H1N1) pdm; assay: microbe, parasite or virus in culture; type: cell-based; settings: for IC50: IAV H1N1pdm in MDCK cells
[4] = test system: HSV-1L2; assay: Antiviral activity in Vero E6 cells infected with HSV-1 (cytopathic effect); type: cell-based
[5] = test system: B95-8 cells; assay: Cytotoxicity (MTT) in B95-8 cells; type: cell-based, cotton-top tamarin (Saguinus oedipus); settings: B95-8 cells, MTT, 72 h
Method: (§1) In each virus–cell system, cytotoxicity ranges were determined for polyphenols and reference compounds using MTT assay. Half-maximal cytotoxic concentrations (CC50) were determined from the curves of the dependence of the proportion of cells retaining viability after incubation with the compound (relative to the number of cells incubated in the absence of the compound) on its concentration, using nonlinear regression equations (4 parameters).
(§2) To assess cytotoxicity, B95-8 cells (5 × 10^5 per 1 mL) were incubated with polyphenols at 37 °C in an atmosphere of 5% CO2 for 72 h. The experiment was then carried out as described in Section 4.3.5.

[6] = test system: Vero E6 cells; assay: Cytotoxicity (MTT) in Vero E6 cells (HSV system); type: cell-based
[7] = in vitro; settings: human
[8] = test system: HIV-1 (HIVIIIB); assay: microbe, parasite or virus in culture; type: cell-based; settings: Human immunodeficiency virus 1, MT4; HIV-1 IIIB in MT-4 cells
[9] = Cytotoxicity (MTT) in Vero E6 cells (HSV system); type: cell-based; settings: African green monkey
[10] = in vitro; settings: human; remark: listed apart in the source
[11] = test system: CMV (strain AD169); assay: Anti-CMV, pre-inoculation setup (plaques) in HELF; type: cell-based, human cytomegalovirus
[12] = test system: EBVB95-8; assay: Inhibition of EBV replication in B95-8 cells (EBV genomic DNA, real-time PCR); type: cell-based, Epstein–Barr virus; settings: for IC50: human gammaherpesvirus 4, B-95-8, 48 h, read-out: IC50, Inhibition on EBV Replication
[13] = test system: CMV (strain AD169); assay: Anti-CMV, post-inoculation setup: inhibition of infectious virus production (plaques from conditioned medium) in HELF; type: cell-based, human cytomegalovirus
[14] = Cytotoxicity (MTT) in B95-8 cells; type: cell-based, cotton-top tamarin (Saguinus oedipus); settings: cotton-top tamarin (Saguinus oedipus)
Method: as §1, §2

[15] = test system: CMV (strain AD169); assay: Anti-CMV, post-inoculation setup: inhibition of intracellular replication (cells stained for viral proteins) in HELF; type: cell-based, human cytomegalovirus
[16] = Cytotoxicity (MTT) in Vero E6 cells (SARS-CoV-2 system); type: cell-based; settings: African green monkey
Method: First, we performed biological testing of Rutan and geraniin against IAV and SARS-CoV-2. […] In addition, we evaluated geraniin against SARS-CoV-2 (in Vero E6 cells), and HIV-1 (in MT-4 cells) to confirm its activity. In all experiments three parameters were determined: concentrations of a drug that suppressed virus replication (IC50) or decreased cell viability (CC50) by 50% as well as their ratio—the selectivity index (SI, CC50/IC50 [123]).
as §1

[17] = test system: SARS-CoV-2 (HCoV-19/Russia/Moscow-PMVL-12/2020, EPI_ SL_572398); assay: microbe, parasite or virus in culture; type: cell-based; settings: for IC50: Severe acute respiratory syndrome coronavirus 2, Vero C1008; for Δ(lgTCID50)max: maximum difference in virus titers, Vero E6 cells
[18] = test system: IAV; settings: cited from earlier work
[19] = test system: SARS-CoV-2; design: method as in doi:10.2139/ssrn.4000447; settings: geraniin isolated from Elaeocarpus sylvestris; cited from earlier work
[20] = in vitro; settings: dog
[21] = test system: HIV-1; design: method as in ref 103 (Notka et al.); settings: ref 103 (Notka et al.); cited from earlier work
[22] = test system: CMVTowne strain; design: method as in ref 35 (Kim et al.); settings: human foreskin fibroblasts, ref 35 (Kim et al.); cited from earlier work
[23] = Cytotoxicity (MTT) in HELF cells; settings: human
[24] = Human alphaherpesvirus 2, Vero C1008, HSV-2BH, Vero E6, 0.1 PFU/cell, read-out: IC50
[25] = Human alphaherpesvirus 1, Vero C1008, HSV-1L2, Vero E6, 0.1 PFU/cell, read-out: IC50
[26] = Human betaherpesvirus 5, post-inoculation setup, CMV AD169 in HELF
[27] = Influenza A virus, H1N1, read-out: IC50
[28] = Human betaherpesvirus 5, AD169, HELF

2,4-bis-O-galloyl-1,3,6-tri-O-galloyl-β-D-glucose [R7]
IC50 [1]: 8.32 µg/mL | IC95 [1]: 31.25 µg/mL | CC50 [2]: 191.01 µg/mL | Δ(lgTCID50)max [3]: 2.75 | IC50 [3]: 2.13 µg/mL | IC50 [4]: 5.95 µg/mL | IC95 [4]: 8.32 µg/mL | CC50 [5]: 33 µg/mL | CC50 [6]: 165.00 µg/mL

Cc1cn([C@H]2C[C@H](N=[N+]=[N-])[C@@H](CO)O2)c(=O)[nH]c1=O [Azidothymidine, reference compound]
CC50 [7]: 3.6 µg/mL (≈ 13.5 µM) | IC50 [8]: 0.002 µg/mL (≈ 0.00748 µM)

O=C(O)P(=O)(O)O [Foscarnet, reference compound]
IC95 ([1]; HSV-2BH, Vero E6, 0.1 PFU/cell): 31.25 µg/mL (≈ 248 µM) | IC50 [1, 24]: 7.8 µg/mL (≈ 61.9 µM) | IC95 ([4]; HSV-1L2, Vero E6, 0.1 PFU/cell): 62.5 µg/mL (≈ 496 µM) | IC50 [4, 25]: 15.6 µg/mL (≈ 124 µM) | CC50 [9]: > 125 µg/mL

Nc1nc(O)c2ncn(COC(CO)CO)c2n1 [Ganciclovir, reference compound]
CC50 at 72 h [10]: 185 µg/mL (≈ 725 µM) | SI, Pre-Inoculation Setup ([11]; pre-inoculation setup, CC50/IC50): No activity | IC50, Pre-Inoculation Setup ([11]; pre-inoculation setup, CMV AD169 in HELF): No activity | IC50 [12]: 100 µg/mL (≈ 392 µM) | IC50 [13, 26]: < 0.1 µg/mL | CC50 at 72 h [14]: > 1000 µg/mL | IC50 [15, 26]: 0.22 µg/mL (≈ 0.862 µM)

O=C1O[C@H]2C3OC(=O)c4cc(O)c(O)c(O)c4-c4c(cc(O)c(O)c4O)C(=O)OC[C@H]2O[C@@H](OC(=O)c2cc(O)c(O)c(O)c2)[C@@H]3OC(=O)c2cc(O)c(O)c3c2[C@@H]2C1=CC(=O)[C@](O)(O3)C2(O)O [Geraniin, (1R,7R,26R,28S,29R,38R)-1,13,14,15,18,19,20,34,35,39,39-Undecahydroxy-2,5,10,23,31-pentaoxo-6,9,24,27,30,40-hexaoxaoctacyclo [34.3.1.0~4,38~.0~7,26~.0~8,29~.0~11,16~.0~17, 22~.0~32,37~]tetraconta-3,11,1 3,15,17,19,21,32,34,36-decaen-28-yl 3,4,5-trihydroxybenzoate]
IC95 ([1]; HSV-2BH, Vero E6, 0.1 PFU/cell): 6.25 µg/mL (≈ 6.56 µM) | IC50 [1, 24]: 0.39 µg/mL (≈ 0.409 µM) | CC50 [16]: 65.4 µg/mL (≈ 68.7 µM) | CC50 [7]: 41 µg/mL (≈ 43 µM) | IC50 ([17]; SARS-CoV-2 in Vero E6 cells, read-out: IC50): 5.2 µg/mL (≈ 5.46 µM) | Δ(lgTCID50)max [17]: 4.75 | result for geraniin against IAV compared with IC50 ([18]; ref 72 (Joo et al.)): 5.3 µg/mL | result for geraniin against IAV compared with IC50 ([18]; ref 96 (Choi et al.)): 34 µg/mL | IC50 [8]: 1.6 µg/mL (≈ 1.68 µM) | Δ(lgTCID50)max [3]: 4.5 | IC50 [3, 27]: 10.8 µg/mL (≈ 11.4 µM) | IC95 ([4]; HSV-1L2, Vero E6, 0.1 PFU/cell): 1.56 µg/mL (≈ 1.64 µM) | IC50 [4, 25]: 1.2 µg/mL (≈ 1.26 µM) | activity against EBV (in words) ([12]; B95-8 cells): did not interfere | CC50 at 72 h ([14]; B95-8 cells, MTT, 72 h, read-out: CC50): 63 µg/mL (≈ 66.1 µM) | concentration range suppressing virus replication [19]: 1 to 25 µg/mL | CC50 [9]: 65.9 µg/mL (≈ 69.2 µM) | CC50 [20]: 288 µg/mL (≈ 302 µM) | activity against CMV (in words) ([15]; CMV AD169 in HELF): did not interfere | IC50 [21]: 0.46 µg/mL (≈ 0.483 µM)

CC(C)(C)[C@H](NC(=O)C(F)(F)F)C(=O)N1C[C@H]2[C@@H]([C@H]1C(=O)N[C@H](C#N)C[C@@H]1CCNC1=O)C2(C)C [Nirmatrelvir, reference compound]
CC50 [16]: > 20 µg/mL | IC50 [17]: 0.1 µg/mL (≈ 0.2 µM) | Δ(lgTCID50)max [17]: 6.0

CCOC(=O)C1=C[C@@H](OC(CC)CC)[C@H](NC(C)=O)[C@@H](N)C1 [Oseltamivir, reference compound]
Δ(lgTCID50)max [3]: 6.0 | IC50 [3, 27]: 0.02 µg/mL (≈ 0.064 µM) | CC50 [20]: > 10 µg/mL

O=C(OC[C@H]1O[C@@H](OC(=O)c2cc(O)c(O)c(O)c2)[C@H](OC(=O)c2cc(O)c(O)c(O)c2)[C@@H](OC(=O)c2cc(O)c(O)c(O)c2)[C@@H]1OC(=O)c1cc(O)c(O)c(O)c1)c1cc(O)c(O)c(O)c1 [R5, 1,2,3,4,6-penta-O-galloyl-β-D-glucose]
IC95 [1]: 25.0 µg/mL (≈ 26.6 µM) | IC50 ([1]; Human alphaherpesvirus 2, Vero C1008, read-out: IC50): 12.5 µg/mL (≈ 13.3 µM) | IC50 [11, 28]: 2.2 µg/mL (≈ 2.34 µM) | activity against CMV (in words) [22]: failed to detect the activity | CC50 at 72 h [23]: 150 µg/mL (≈ 159 µM) | Δ(lgTCID50)max [3]: 1.5 | IC50 [3, 27]: 8.85 µg/mL (≈ 9.41 µM) | IC95 [4]: 25.0 µg/mL (≈ 26.6 µM) | IC50 ([4]; Human alphaherpesvirus 1, Vero C1008, read-out: IC50): 12.5 µg/mL (≈ 13.3 µM) | decrease of the level of intracellular viral DNA ([12]; 10 μg/mL, 48 h, B95-8 cells): 39 ± 5% | IC50 [12]: > 10 µg/mL | IC50 [13, 28]: 6.4 µg/mL (≈ 6.8 µM) | CC50 [5]: 85 µg/mL (≈ 90.4 µM) | CC50 [9]: 188 µg/mL (≈ 200 µM) | CC50 [20]: 86.3 µg/mL (≈ 91.8 µM) | reduction of the number of infected HELF [15]: 71% and 86% | IC50 [15, 28]: 7.4 µg/mL (≈ 7.87 µM)

O=C(OC[C@H]1O[C@@H](OC(=O)c2cc(O)c(O)c(O)c2)[C@H](OC(=O)c2cc(O)c(O)c(O)c2)[C@@H](OC(=O)c2cc(O)c(O)c(OC(=O)c3cc(O)c(O)c(O)c3)c2)[C@@H]1OC(=O)c1cc(O)c(O)c(O)c1)c1cc(O)c(O)c(O)c1 [R6, 3-bis-O-galloyl-1,2,4,6-tetra-O-galloyl-β-D-glucose]
IC50 ([1]; HSV-2BH, Vero E6, 0.1 PFU/cell): 31.25 µg/mL (≈ 28.6 µM) | IC95 ([1]; HSV-2BH, Vero E6, 0.1 PFU/cell): 50.0 µg/mL (≈ 45.8 µM) | CC50 [2]: 93.13 µg/mL (≈ 85.2 µM) | Δ(lgTCID50)max [3]: 1.0 | IC50 [3]: >50 µg/mL | IC50 ([4]; HSV-1L2, Vero E6, 0.1 PFU/cell): 25.0 µg/mL (≈ 22.9 µM) | IC95 ([4]; HSV-1L2, Vero E6, 0.1 PFU/cell): >25.0 µg/mL | CC50 [5]: >20 µg/mL | CC50 [6]: 69.62 µg/mL (≈ 63.7 µM)

O=C(OC[C@H]1O[C@@H](OC(=O)c2cc(O)c(O)c(O)c2)[C@H](OC(=O)c2cc(O)c(O)c(OC(=O)c3cc(O)c(O)c(O)c3)c2)[C@@H](OC(=O)c2cc(O)c(O)c(OC(=O)c3cc(O)c(O)c(O)c3)c2)[C@@H]1OC(=O)c1cc(O)c(O)c(OC(=O)c2cc(O)c(O)c(O)c2)c1)c1cc(O)c(O)c(O)c1 [R8, 2,3,4-bis-O-galloyl-1,6-di-O-galloyl-β-D-glucose]
IC50 ([1]; HSV-2BH, Vero E6, 0.1 PFU/cell): 31.25 µg/mL (≈ 22.4 µM) | IC95 ([1]; HSV-2BH, Vero E6, 0.1 PFU/cell): 62.5 µg/mL (≈ 44.7 µM) | CC50 [2]: 233 µg/mL (≈ 167 µM) | Δ(lgTCID50)max [3]: 4.25 | IC50 [3]: 0.8 µg/mL (≈ 0.573 µM) | IC50 ([4]; HSV-1L2, Vero E6, 0.1 PFU/cell): 10.0 µg/mL (≈ 7.16 µM) | IC95 ([4]; HSV-1L2, Vero E6, 0.1 PFU/cell): 31.25 µg/mL (≈ 22.4 µM) | CC50 [5]: >20 µg/mL | CC50 [6]: 106.00 µg/mL (≈ 75.9 µM)
